Assay results: US11179414B2, “Method for producing protease degradation composition” (LAIMU CORPORATION, priority 2018, dated 2021)

Tested on: adult-derived normal human fibroblasts
Assay: Collagen production promoting test (human collagen type 1 ELISA of supernatant)
Type: cell-based
Settings: final concentration 1 mg/mL; culture for 3 days; mean of 5 tests
Experimental: As the cells for test, adult-derived normal human fibroblasts bought from Kurabo Industries Ltd. were used.
As a cell growth medium, DMEM added with 10% FBS and […] mixed solution was used; and as a test medium, DMEM added with 1% FBS and 1% penicillin-streptomycin mixed solution was used.
Adult-derived normal human fibroblasts were sown and initiated in a cell growth medium inside a cell culture flask (Corning's T-75), and cultured in a moist environment at 37° C. in the presence of 5% CO2. During this, the medium was replaced every other day, and at the time when the culture reached 80% confluent growth, the cells were collected and used in the following tests.
The cultured fibroblasts were sown in a 96-well plate to be 5×10^3 cells/0.1 mL/well, and cultured therein at 37° C. in the presence of 5% CO2 for 1 day. Subsequently, the cell growth medium in each well was replaced with each test medium added with the composition 1 or L-ascorbic acid 2-glucoside, or with a test medium not added with them (control medium). […] Subsequently, the cells were cultured at 37° C. in the presence of 5% CO2 for 3 days, then the supernatant of the test medium in each well was collected, and using a human collagen-type 1 ELISA kit, the I-type collagen concentration in the supernatant was measured. […]

Structure (SMILES): O=C1O[C@H]([C@@H](O)CO)C(O)=C1O[C@H]1O[C@H](CO)[C@@H](O)[C@H](O)[C@H]1O [L-ascorbic Acid 2-Glucoside, L-ascorbic acid 2-glucoside]
- Collagen Production Amount (I-type collagen concentration in supernatant): 4.29 µg/mL
